The results in this text go back to patent US9556437B2, “FAT1 gene in cancer and inflammation” (DEPARTMENT OF BIOTECHNOLOGY (DBT), priority 2012, dated 2017).

Entries after “also recorded” stand apart in the source; their conditions may differ.

Common to all, as to format: cell-based, human
Data set [1] has as its system FAT1 mRNA. Description: FAT1 knockdown by siRNA, q-PCR for FAT1. To be noted: U87MG cell line. On the procedure:
(§1) Cell Culture and siRNA Transfection: The human glioma cell lines U87MG, U373, A172, T98G, GOS3 and SW1088 were obtained from ATCC; Rockville, Md., cultured in DMEM (Sigma-Aldrich, Switzerland) supplemented with 10% (v/v) FCS (Sigma-Aldrich), 3.7 g/l sodium bicarbonate (Sigma-Aldrich), Ciprofloxacin 10 μg/ml and 5% CO2 at 37° C. For transfection, 2×10^5 cells were seeded per 25 cm^2 flask. After 24 hrs, cells were transfected with FAT1 siRNA and universal medium GC control siRNA (Invitrogen) according to the manufacturer's protocol with a final concentration of 20 nM of siRNA using LIPOFECTAMINE 2000 (Invitrogen) and Opti-Mem media (Invitrogen). After 4 hrs of siRNA transfection, the media was supplemented with DMEM containing 2×FCS. The ability of each siRNA to mediate knockdown of FAT1 mRNA was confirmed using qRT-PCR. Photomicrographs of the cells were taken using an inverted phase contrast microscope (Nikon TMS, Phase contrast microscope, Japan). For simultaneous knockdown of FAT1 and PDCD4, siRNA from Dharmacon were used. Transfection was performed as earlier with 50 nM of FAT1 siRNA along with 50 nM of PDCD4 siRNA or 50 nM of control siRNA.
cDNA Synthesis and Quantitative PCR: Total RNA was isolated from cells at appropriate time point (vide supra) using TRIzol reagent (Invitrogen), quantified using a Nanodrop ND-1000 spectrophotometer. […]

Data set [2] relates to A172 cells. The data set is described as follows: Invasion assay, matrigel. To be noted: A172siFAT1 vs siControl, P<0.01. Here is the method:
(§2) Migration and Invasion Assays: The modified Boyden chamber/matrigel assay was performed according to the manufacturer's directions (BD Biosciences, Bedford, Mass.). For in vitro migration assays, chambers with control inserts that lacked the matrigel coating were used. Transfections were carried out in U87MG and A172 cells and 48 hrs later 3×10^4 U87MG cells/well and 7×10^4 A172 cells/well were resuspended in serum-free DMEM and seeded in triplicate in matrigel-coated (1 mg/ml; BD Biosciences) and uncoated control inserts (8-μm pore-size, BD Bioscience, Bedford, Mass.). The remaining protocol was done as previously described.

Data set [3] has as its system U87MG cells. Description: Invasion assay, matrigel. To be noted: U87MGsiFAT1 vs siControl, P<0.01. Here is the method:
as §2

Data set [4] deals with COX-2 promoter. The data set is described as follows: COX-2 promoter luciferase assay. The note with it: U87MG, vs siControl+DMSO; SR11302 10 μM, 48 hrs. Here is the method:
AP-1 and COX-2 Promoter Luciferase Assay: U87MG cells (40000 cells/well) were plated in 6-well plates in triplicate on day zero. On day 1, cells were transfected with siFAT1 and siControl. On day 2 cells were transiently transfected with 4×AP-1-luciferase reporter plasmids as described previously. Cells were transfected with 1 μg of AP-17× luciferase reporter plasmid, along with 50 ng of pRL-TK (Renilla luciferase) control plasmid using LIPOFECTAMINE2000 as the transfection reagent. After 48 hrs, the cells were lysed by 1× passive-lysis-buffer (Promega, Madison, Wis., USA) and assayed for luciferase activity as previously described. For COX-2 luciferase assay U87MG cells were transfected with siFAT1 and siControl on day 1 and after 4 hrs incubation were treated with 10 μM SR11302. On day2 cells were transiently transfected with COX-2 reporter plasmid and again treated with 10 μM SR11302. After 48 hrs, the cells were assayed for luciferase activity.

In data set [5] the test system is ECM protease activity. Description: Gelatin zymography. To be noted: conditioned media of U87MG cells, 72 hrs, vs siControl. On the procedure: Gelatin Zymography: U87MG cells (2.5×10^5 cells/flask) were plated into 25 cm^2 flask. Transfection was performed on day 1 and after 72 hrs, the conditioned medium was collected, clarified by centrifugation, concentrated by Centricon YM-30 (10:1 concentration; Millipore, Billerica, Mass., USA), and separated in non-reducing polyacrylamide gels containing 0.1% (wt/vol) gelatin. The gel was incubated with 1× Zymogram renaturing buffer for 30 min at room temperature, 1× Zymogram developing buffer for 30 min at room temperature, and 1× Zymogram developing buffer at 37° C. for overnight. The gel was then stained for protein with 0.25% (w/v) Coomassie Blue R-250 and then destained with Coomassie R-250 destaining solution (Methanol:Acetic acid:Water (50:10:40). Proteolysis was detected as a white zone in a dark field.

Data set [6] relates to U87MG cells. The data set is described as follows: In vitro Scratch Assay of cell migration. On the procedure: FIGS. 14A to 14D: Effect of NS-398 and FAT1 knockdown simultaneously on Cell Migration by In-vitro Scratch Assay. The in vitro Scratch Assay was performed at 72 hours after culturing cells as follows: At Day 0, 5,000 U87MG cells are plated per well of a 96 well plate. […] (C) Assay of cell migration by the Modified Boyden Chamber Assay under conditions of normoxia and hypoxia. (D) Quantitation of data from (C).
The Scratch Assay is performed at 72 hours after treatment. A scratch is made on the culture surface using a sterile 10 μl tip and cells were allowed to grow. Images were captured after every 3 hrs to monitor the closure of the wound in the culture surface for next 24 hrs.

The test system of data set [7] is U87MG and A172 cells. Description: Cell morphology, phase contrast microscopy. To be noted: U87MGsiFAT1 and A172siFAT1 vs siControl, 72 hrs post transfection. Here is the method: as §1

With “siFAT1: FAT1 specific siRNA (Invitrogen), FAT Stealth RNAi siRNA-I (HSS103567), used for further experiments (sense CCCAACACACCUGUGGUCAUGGUAA; antisense UUACCAUGACCACAGGUGUGUUGGG; Stealth modification, chemistry not fully specified; listed as Homo sapiens)”, the “knockdown efficiency among three FAT1 siRNAs” value in data set [1] is listed as “maximum knockdown efficiency”. Besides, the reduction in invasion in data set [2] is reported as above 1.5 fold; in data set [3] it was above 2 fold. Also, the “decrease in COX-2 luciferase activity” value in data set [4] worked out at 1.8 fold. Besides, the ECM protease activity entry in data set [5] is given as “decreased; also recorded: reduced protease activity”. The “inhibition of cell migration” value in data set [6] (Scratch Assay at 72 hours after treatment) is “about 50%”. Besides, in data set [6] (scratch and modified Boyden chamber assays, normoxic or hypoxic conditions (FIG. 14)), the “migration ability of cells” value is listed as “reduced”. For the same substance, the cell morphology result in data set [7] was “significant morphological alterations; also recorded: Distinct phenotypic changes”.
